# Test: Human HepG2 cell viability assay in 384 well format
# Type: toxicity, cell-based
# Parameters: dose 125 nL, time 70.5 hour; cytotoxicity at 70.5 h: concentration not given beside the values
# Conditions: HepG2 cells, read-out: Inhibition
row,Compound,cytotoxicity at 70.5 h [%]
1,O=C(Nc1cc(C(F)(F)F)ccc1Cl)c1ccc(N2CCCC2)nn1,19.7
2,O=C(NCc1ccc2c(c1)OCO2)c1ccc(N2CCCCC2)nn1,12.8
3,O=C(Nc1ccc(Br)cc1F)c1ccc(N2CCOCC2)nn1,-6.45
4,COCCn1/c(=N/C(=O)C(C)C)sc2cc(Cl)ccc21,21.1
5,CCSc1nc(N)c(NC(=O)c2ccc(C)cc2)c(=O)[nH]1,10.5
6,O=C(O)c1ccc(N2CCC(Cc3ccccc3)CC2)nn1,-1.14
7,Cc1nc(-n2nc(-c3cccs3)cc2N)[nH]c(=O)c1C,-4.91
8,CCCc1cc(=O)[nH]c(-n2nc(-c3cccs3)cc2N)n1,-12.8
9,CC1CCN(C(=O)CSc2nc3c(cnn3CCO)c(=O)[nH]2)CC1,22.7
10,O=C(CSc1nc2c(cnn2CCO)c(=O)[nH]1)NC1CCCCC1,14.1
11,CCNC(=O)N1CCCC(C(=O)c2cccc(OC(C)C)c2)C1 (stereo not given),-6.88
12,O=C1CCC2(CCNCC2)CN1Cc1nncn1CCc1ccccc1,-8.25
13,Cc1cnc(C)c(N2CCN(CCCc3ccncc3)CC2)n1,6.37
14,Cc1cc(C[C@@H]2COC[C@@H]2NC(=O)CN2CCOC2=O)on1,-7.96
15,CCc1[nH]c2ccc(CNC(=O)Cc3c(C)nc(N)nc3C)cc2c1C,1.33
16,CN1CCC(Cc2noc(-c3cn(Cc4ccc(F)cc4)nn3)n2)CC1,-3.72
17,CCN1CC(C(=O)NCCn2cccc2)CCC1=O (stereo not given),-7.13
18,Cc1ccc(CCNC(=O)CC2COCCN2S(=O)(=O)N(C)C)s1 (stereo not given),-11
19,COc1cc(CN2CCCC2)ccc1Oc1ccc2c(c1)CC(CN)O2 (stereo not given),1.9
20,Cc1cnn(CC(=O)N2CCC3(CCC(=O)N(CC(C)O)C3)CC2)c1 (stereo not given),-5.26
21,O=C(CCc1nc(Cl)n[nH]1)N[C@H]1CC[C@H]1NC1Cc2ccccc2C1,-9.72
22,CN(C)C[C@@H]1CN(C2CCN(c3ccc(Cl)cc3)CC2)C[C@@H]1CO,-10.6
23,COc1nc2c(cc1C(=O)N1C[C@@H](N)C[C@H]1C(=O)NC(C)C)CCC2,-2.39

row,Compound,cytotoxicity at 70.5 h [%]
1,CN1CCCC2(CCN(C(=O)Cc3cc4c(cc3Cl)OCCO4)C2)C1=O (stereo not given),-2.31
2,O=C(Cc1cnccn1)N1CCC(c2nccn2CC2CC2)CC1,31.6
3,CC(c1ccco1)N(C)Cc1cc2cc3c(cc2[nH]c1=O)OCO3 (stereo not given),-8.06
4,O=C(Cc1cccc(O)c1)N1CCC2(CC1)c1ccccc1CC2O (stereo not given),-11.7
5,CC(O)CN1CCc2onc(C(c3ccccc3)c3ccccc3)c2C1 (stereo not given),-10
6,COCCS(=O)(=O)c1ncc(CN(C)CC(C)C)n1Cc1ccccc1,-1.85
7,O=C(Cn1c(=O)oc2ccccc21)N1Cc2cnn(CCO)c2C1,-2.5
8,Cc1oc(-c2cccc(F)c2)nc1CN1CCOCS1(=O)=O,-11.9
9,Cc1cc(C)c2nc(CN3CCC(CN)C3)cc(O)c2c1 (stereo not given),6.13
10,COCCCC1CCCCN1Cc1cn2cc(C)ccc2n1 (stereo not given),-25.8
11,Cc1ccccc1-n1cc(-c2ccnc(NC(CO)C(C)C)n2)cn1 (stereo not given),-7.36
12,CN1CCCN(c2nccc(-c3cc(C(=O)O)ccn3)n2)CC1,24.6
13,Cc1cc(C)n(NC(=O)c2cccc3c2OCC3)c(=O)c1,-6.18
14,O=C(Nc1ccc(F)cc1)C1CNCCN1C(=O)CCO (stereo not given),8.54
15,C=C1C(C)(C)[C@H]2CC[C@]1(C(=O)N1CCC(n3cc(CO)nn3)CC1)C2,-7.81
16,CCN(Cc1cccc(C(=O)Nc2cn(C)nn2)c1)[C@H]1COC[C@@H]1O,-5.22
17,Cc1cc(C(F)(F)F)nc(CNC(=O)CCC2CCCCN2C)n1 (stereo not given),0.421
18,CCCN(CC)c1cc(C2CCNCC2)nc(C)n1,26.5
19,COc1ccc(-c2nccn2CC(O)CN2CCCC2)c(F)c1 (stereo not given),28.4
20,Cn1ccnc1C1c2nc[nH]c2CCN1Cc1cccnc1 (stereo not given),-5.94
21,CCn1ccnc1CN(C)C(=O)Cn1ccc2ccccc2c1=O,-10.4
22,CN(Cc1n[nH]c2c1CCC2)C(=O)CCc1cc2n(n1)CCCNC2,-12.8
23,COc1ccc(C(O)CNC(=O)NCCc2csc(C)n2)cc1 (stereo not given),-4.45

row,Compound,cytotoxicity at 70.5 h [%]
1,Cc1ccc(-c2cc(CNC(=O)N3CCSCC3)on2)cc1,-1.58
2,Cc1nc(CNC(=O)NCC(O)c2ccc(F)cc2)cs1 (stereo not given),-3.15
3,Cc1csc(N2CCCN(C(=O)Cn3cncn3)CC2)n1,-2.46
4,Cc1csc(N2CCCN(C(=O)C(C)n3cncn3)CC2)n1 (stereo not given),1.24
5,CCc1nc(C2CCCN(C(=O)c3ccccc3F)C2)no1 (stereo not given),-2.67
6,COCCN1CCN(CCCS(=O)(=O)N(C)C)CC1C (stereo not given),-2.19
7,CCS(=O)(=O)c1ccccc1N1CCC(N)CC1,-3.9
8,CC(=O)N1CCCN(C(=O)c2ccc(=O)n(C)c2)c2ccccc21,-2.79
9,O=C(c1nn(-c2ccccc2F)cc1O)N1CCCSCC1,2.69
10,Cn1cc(C(=O)N2CCSc3ccccc32)ccc1=O,3.72
11,O=C(c1nn(-c2ccccc2F)cc1O)N1CCC2(CC1)OCCO2,13.2
12,CCc1nc(CN(C)C2CCN(CC(=O)N3CCOCC3)C2)no1 (stereo not given),-1.36
13,CC(=O)N(Cc1noc(C2CC2)n1)C1CCN(CC2CCOCC2)C1 (stereo not given),22.1
14,CN(Cc1noc(C2CC2)n1)C1CCN(CC(=O)N2CCOCC2)C1 (stereo not given),-3.02
15,CCc1nc(C2CCCN2C(=O)CCc2c(C)noc2Cl)no1 (stereo not given),-3.77
16,COc1ccc(NC(=O)CCn2nc(-c3cccs3)oc2=O)cc1OC,-5.48
17,COc1cc(NC(=O)CCn2nc(-c3cccs3)oc2=O)cc(OC)c1,-7.55
18,N#Cc1cccc(NC(=O)CCn2nc(-c3cccs3)oc2=O)c1,-11
19,O=C(C1CCCN1Cc1nc(-c2ccco2)no1)N1CCSCC1 (stereo not given),-5.08
20,COc1cc(C(=O)NS(=O)(=O)c2cccc(C#N)c2)cc(OC)c1Br,-6.73
21,CC(C)c1ncncc1C(=O)N1CCN(Cc2ccccn2)CC1,-7.1
22,CC(C)c1ncncc1C(=O)N1CCN(Cc2ccsc2)CC1,-10.1
23,O=C1NCCN1C1CCN(Cc2coc(-c3ccc(F)cc3)n2)CC1,-2.32

row,Compound,cytotoxicity at 70.5 h [%]
1,CCc1nnc2n1CCN(Cc1csc(NC(C)=O)n1)C2,-3.38
2,COc1ncccc1CNC(=O)NC1CCCOc2ccccc21 (stereo not given),-4.36
3,CC(=O)Nc1nc(CN2CCn3c(C)nnc3C2)cs1,-2.82
4,CS(=O)(=O)NC(=O)c1nnn(-c2ccccc2)c1C1CC1,-5.6
5,O=C(N1CCCC(n2cncn2)C1)C1(c2ccc(Cl)cc2)CCC1 (stereo not given),-7.28
6,O=C(N1CCCC(n2cncn2)C1)C1(c2cccc(F)c2)CC1 (stereo not given),-7.31
7,O=C(N1CCCC(n2cncn2)C1)C1(c2ccccc2F)CCCC1 (stereo not given),-5.6
8,Cc1nc(CN(C)C2CCN(CCC(=O)N3CCOCC3)C2)no1 (stereo not given),15.9
9,Cc1ccc(-c2nc(CN3CCC(N4CCNC4=O)CC3)co2)cc1,-0.587
10,O=C1NCCN1C1CCN(Cc2coc(-c3ccccc3)n2)CC1,20.6
11,O=C(c1ccc2c(c1)CCCC2)N1CCCC(n2cncn2)C1 (stereo not given),-4.56
12,O=C(CCc1cccs1)N1CCCC1c1noc(C2CC2)n1 (stereo not given),-6.44
13,COc1cc(C(=O)N2CCCC(n3cncn3)C2)ccc1C (stereo not given),-8.45
14,CCc1nc(C2CCCN2C(=O)CCc2cscn2)no1 (stereo not given),-4.03
15,CCc1nc(C2CCCN2C(=O)Cc2cccs2)no1 (stereo not given),-8.42
16,c1ccc2oc(CCCN3CCCC(Cn4cncn4)C3)nc2c1 (stereo not given),19.8
17,CCc1noc(CN2CCN(C(=O)c3ccccc3F)CC2)n1,29.8
18,CC(C)Cc1noc(CN2CCN(C(=O)c3ccccc3F)CC2)n1,13.7
19,CC(C)c1noc(CN2CCN(C(=O)c3ccc(F)cc3)CC2)n1,-3.61
20,CC(NC(=O)Cc1cccs1)c1nnc2n1CCC2 (stereo not given),-7.18
21,CC(NC(=O)CCC(=O)c1cccs1)c1nnc2n1CCC2 (stereo not given),-3.09
22,Cc1cccc(CN2CCN(C(=O)c3cc(C4CC4)[nH]n3)CC2)c1,-4.75
23,O=C(c1cc(C2CC2)[nH]n1)N1CCN(Cc2ccncc2)CC1,-11.9

row,Compound,cytotoxicity at 70.5 h [%]
1,O=C(NCCNc1ncccn1)C1CCN(C(=O)NC2CC2)CC1,-4.22
2,CC(C)(C)OC(=O)N1CCC(C(=O)NCCNc2ncccn2)CC1,-7.43
3,c1csc(-c2noc(CN3CCc4cncnc4C3)n2)c1,-8.24
4,Cc1ccc(NC2CCN(C(=O)CCc3ccccc3)CC2)nn1,-6.29
5,O=C(CCc1ccco1)N1CCC(Nc2cccnn2)CC1,1.07
6,Cc1ccc(NC2CCN(C(=O)CCc3cscn3)CC2)nn1,11.4
7,Cc1ccc(NC2CCN(C(=O)CCNc3ncccn3)CC2)nn1,-9.43
8,CC1CN(CC(=O)Nc2ccncc2)CCN1c1nccs1 (stereo not given),-2.52
9,CN1CCOC(CN(C(=O)CCc2cnn(C)c2)c2nccs2)C1 (stereo not given),-5.55
10,O=C(NCCNc1ncccn1)C1CCN(C(=O)N2CCCC2)CC1,-12.3
11,CC(C)c1noc(CN2CCN(C(=O)c3cc(Cl)ccc3F)CC2)n1,-8.7
12,Cc1nn(C)c(C)c1NC(=O)CN1CCN(c2nccs2)C(C)C1 (stereo not given),-6.35
13,Cc1ccc(NC2CCN(C(=O)c3ccco3)CC2)nn1,11.9
14,Cc1nn(-c2ccccc2)cc1C(=O)N1CCCC1c1cnn(C)c1 (stereo not given),-6.59
15,c1ccc(-c2noc(CCCN3CCCC3Cn3cncn3)n2)cc1 (stereo not given),-13.4
16,COc1cccc2cc(CNCc3ccnc(N(C)C)c3)oc12,7.6
17,CC(c1nc(C(C)(C)C)no1)N1CCN(Cc2ccc(C#N)cc2)CC1 (stereo not given),-1.19
18,Cn1cnc(S(=O)(=O)NCCCN2CCCC2=O)c1Cl,-2.39
19,Cn1cnc(S(=O)(=O)NCCCN2CCCCCC2=O)c1Cl,0.779
20,COc1ccc(OC)c(CNCc2ccnc(N3CCOCC3)c2)c1,-4.43
21,Cn1ncc2c(N3CCCN(C(=O)c4ccsc4)CC3)ncnc21,-1.19
22,Cn1ccc(C(=O)N2CCN(c3ccccn3)CC2)cc1=O,-1.81
23,O=C(CSc1nnc(N2CCNCC2)s1)Nc1ccccc1,27.6
